Assay results from patent publication US6248747A, “5-(heterocyclic alkyl)-6-aryl-dihydropyrimidines” (Synaptic Pharmaceutical Corporation, priority 1999, dated 2001).
Like-named read-outs stand apart in the source and are kept apart here.

Columns and labels:
[1] = molecular target: T1, cloned human α1b receptor (Homo sapiens, UniProt P35368); test: Radioligand binding affinity at cloned human α1b receptor ([3H]prazosin); settings: LM(tk-) cell membranes, SEM and n
T1 construct: The entire coding region of α1B (1563 bp); expressed in transfected cells; host or cells: LM(tk-) cells, membranes; vector pCEXV-3
T1 sequence (P35368 1-520): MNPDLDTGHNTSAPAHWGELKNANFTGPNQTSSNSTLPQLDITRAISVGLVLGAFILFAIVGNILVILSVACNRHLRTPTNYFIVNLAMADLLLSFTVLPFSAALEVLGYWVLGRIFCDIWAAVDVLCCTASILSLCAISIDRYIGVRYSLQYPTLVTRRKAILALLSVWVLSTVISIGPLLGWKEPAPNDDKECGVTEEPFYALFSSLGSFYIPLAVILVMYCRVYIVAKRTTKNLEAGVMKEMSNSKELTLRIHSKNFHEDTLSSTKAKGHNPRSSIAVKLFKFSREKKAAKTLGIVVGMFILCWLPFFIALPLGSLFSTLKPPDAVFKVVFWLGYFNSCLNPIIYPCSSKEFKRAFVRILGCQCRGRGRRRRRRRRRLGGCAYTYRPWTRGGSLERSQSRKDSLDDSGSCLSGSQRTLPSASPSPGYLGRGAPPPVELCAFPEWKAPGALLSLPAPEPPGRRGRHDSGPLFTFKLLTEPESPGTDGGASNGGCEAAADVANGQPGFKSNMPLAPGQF
Experimental: (§1) The protocols for these experiments are given below.
(§2) These cell lines were prepared by transfecting the cloned cDNA or cloned genomic DNA or constructs containing both genomic DNA and cDNA encoding the human α-adrenergic receptors as follows:
The construct involved ligating the full-length containing EcoRI brainstem cDNA fragment from λ ZapII into the expression vector. Stable cell lines were selected as described above.
(§3) Radioligand Binding Assays: Transfected cells from culture flasks were scraped into 5 ml of 5 mM Tris-HCl, 5 mM EDTA, pH 7.5, and lysed by sonication. The cell lysates were centrifuged at 1000 rpm for 5 min at 4° C., and the supernatant was centrifuged at 30,000×g for 20 min at 4° C. The pellet was suspended in 50 mM Tris-HCl, 1 mM MgCl2, and 0.1% ascorbic acid at pH 7.5. […] Nonspecific binding was determined in the presence of 10 μM phentolamine. The reaction was stopped by filtration through GF/B filters using a cell harvester.

[2] = molecular target: T2, cloned human α1c receptor (Homo sapiens, UniProt P35348); test: Radioligand binding affinity at cloned human α1c receptor ([3H]prazosin); settings: LM(tk-) cell membranes, SEM and n
T2 construct: The entire coding region of α1C (1401 bp); expressed in transfected cells; host or cells: LM(tk-) cells, membranes; vector EXJ.RH (derived from pCEXV-3)
T2 sequence (P35348 1-466): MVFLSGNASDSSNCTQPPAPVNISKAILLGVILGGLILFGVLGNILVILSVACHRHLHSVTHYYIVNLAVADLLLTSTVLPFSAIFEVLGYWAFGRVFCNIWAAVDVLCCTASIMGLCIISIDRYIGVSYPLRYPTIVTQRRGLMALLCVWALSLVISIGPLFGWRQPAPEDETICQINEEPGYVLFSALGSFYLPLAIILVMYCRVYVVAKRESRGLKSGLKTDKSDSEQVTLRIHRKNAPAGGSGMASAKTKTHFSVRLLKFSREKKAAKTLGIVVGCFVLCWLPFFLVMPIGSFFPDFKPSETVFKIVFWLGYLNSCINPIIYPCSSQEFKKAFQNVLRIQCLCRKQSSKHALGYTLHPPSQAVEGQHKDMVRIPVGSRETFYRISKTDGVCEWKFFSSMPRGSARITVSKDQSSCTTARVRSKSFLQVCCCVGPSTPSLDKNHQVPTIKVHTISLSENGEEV
Experimental: as §1, §2
The construct involved ligating three partial overlapping fragments: a 5' 0.6 kb HincII genomic clone, a central 1.8 EcoRI hippocampal cDNA clone, and a 3' 0.6 Kb PstI genomic clone. The hippocampal cDNA fragment overlaps with the 5' and 3' genomic clones so that the HincII and PstI sites at the 5' and 3' ends of the cDNA clone, respectively, were utilized for ligation. This full-length clone was cloned into the KpnI site of the expression vector, using the 5' and 3' KpnI sites of the fragment, derived from vector (i.e., pBluescript) and 3'-untranslated sequences, respectively. Stable cell lines were selected as described above.
Radioligand Binding Assays: Transfected cells from culture flasks were scraped into 5 ml of 5 mM Tris-HCl, 5 mM EDTA, pH 7.5, and lysed by sonication. The cell lysates were centrifuged at 1000 rpm for 5 min at 4° C., and the supernatant was centrifuged at 30,000×g for 20 min at 4° C. The pellet was suspended in 50 mM Tris-HCl, 1 mM MgCl2, and 0.1% ascorbic acid at pH 7.5. […] Nonspecific binding was determined in the presence of 10 μM phentolamine. […]

[3] = molecular target: T3, cloned human α1a receptor (Homo sapiens, UniProt P25100); test: Radioligand binding affinity at cloned human α1a receptor ([3H]prazosin); settings: LM(tk-) cell membranes, SEM and n
T3 construct: The entire coding region of α1A (1719 bp); expressed in transfected cells; host or cells: LM(tk-) cells, membranes
T3 sequence (P25100 1-572): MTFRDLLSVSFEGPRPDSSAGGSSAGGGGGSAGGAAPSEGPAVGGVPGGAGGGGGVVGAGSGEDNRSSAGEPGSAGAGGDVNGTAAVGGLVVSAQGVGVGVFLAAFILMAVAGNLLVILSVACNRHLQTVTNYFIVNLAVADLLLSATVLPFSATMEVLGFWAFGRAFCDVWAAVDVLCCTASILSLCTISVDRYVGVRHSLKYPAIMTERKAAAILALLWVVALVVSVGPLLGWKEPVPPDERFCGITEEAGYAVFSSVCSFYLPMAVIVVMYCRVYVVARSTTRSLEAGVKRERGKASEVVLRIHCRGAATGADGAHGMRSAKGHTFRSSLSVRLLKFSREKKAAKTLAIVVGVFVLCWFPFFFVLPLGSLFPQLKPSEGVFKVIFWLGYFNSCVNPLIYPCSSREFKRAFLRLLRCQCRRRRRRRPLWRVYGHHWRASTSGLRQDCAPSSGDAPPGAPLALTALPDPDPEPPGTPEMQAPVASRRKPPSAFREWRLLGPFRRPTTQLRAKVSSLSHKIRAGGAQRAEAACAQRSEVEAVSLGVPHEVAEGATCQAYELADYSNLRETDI
Experimental: as §1, §2, §3

[4] = cited from earlier work
[5] = test system: benign prostatic hyperplasia (BPH); settings: literature report (phenoxybenzamine: M. Caine et al. 1976); cited from earlier work

SMILES: CCC1=C(C(N)=O)C(c2ccc(F)c(F)c2)N(C(=O)NCCCN2CCC(C(=O)OC)(c3ccccc3)CC2)C(=O)N1 (single isomer, unassigned; (+)) [Example 20, (+)-5-Carboxamido-6-(3,4-difluorophenyl)-4-ethyl-1-{N-[3-(4-methoxycarbonyl-4-phenylpiperidin-1-yl)propyl]}carboxamido-2-oxo-1,2,3,6-tetrhydropyrimidine]
- hα1b pKi [1]: 6.59
- hα1c pKi [2]: 9.68
- hα1a pKi [3]: 6.46

SMILES: Clc1cccc(Cl)c1N=C1NCCN1 [clonidine]
- side effects ([4]; background statement): dry mouth and sedation

SMILES: CC(COc1ccccc1)N(CCCl)Cc1ccccc1 (stereo not shown) [phenoxybenzamine]
- side effects ([4]; background statement): significant side effects such as dizziness and asthenia
- usefulness in treating BPH [5]: useful in relieving the symptoms of BPH

SMILES: COc1cc2nc(N3CCN(C(=O)c4ccco4)CC3)nc(N)c2cc1OC [prazosin]
- side effects ([4]; in vivo): untoward side effects
- usefulness in treating BPH [5]: useful for treating BPH

SMILES: COc1cc2nc(N3CCN(C(=O)C4CCCO4)CC3)nc(N)c2cc1OC (stereo not shown) [terazosin]
- side effects ([4]; background statement): untoward side effects
- usefulness in treating BPH [5]: useful for treating BPH
